Test results reported in patent US7008905B2, “Method of combating undesired plant growth on cereals” (BASF Aktiengesellschaft, priority 2000, dated 2006).

Legend:
Type in all cases: in vivo
Alopecurus myosuroides = test: Pre-emergence test, weed control; conditions: 3 weeks after treatment, rating 0-100 (100=death), Table 3
Experimental: (§1) The pre-emergence tests involve spraying a liquid formulation of the compound onto the soil in which the seeds of the plant species mentioned above has recently been sown.
(§2) The soil used in the tests is a prepared horticultural loam. The formulations used in the tests are prepared from solutions of the test compounds in acetone containing 0.4% by weight of an alkylphenol/ethylene oxide condensate available under the trade mark TRITON X-155.
(§3) In these tests untreated sown soil is used as control. The herbicidal effects of the test compounds are assessed visually three weeks after spraying the soil and are recorded an a 0 to 100 scale. A rating 0 indicates growth as untreated control, a rating 100 indicates death. An increase of 10 unit an the linear scale approximates to a 10% increase in the level of effect. The results of the assessment are set out in Tables 1 to 4.

Apera spica-venti = test: Pre-emergence test, weed control; conditions: 3 weeks after treatment, rating 0-100 (100=death), Table 3
Experimental: as §1, §2, §3

Galium aparine = test: Pre-emergence test, weed control; conditions: 3 weeks after treatment, rating 0-100 (100=death), Table 3
Experimental: as §1, §2, §3

Lamium purpureum = test: Pre-emergence test, weed control; conditions: 3 weeks after treatment, rating 0-100 (100=death), Table 3
Experimental: as §1, §2, §3

Lolium perenne = test: Pre-emergence test, weed control; conditions: 3 weeks after treatment, rating 0-100 (100=death), Table 3
Experimental: as §1, §2, §3

Matricaria inodora = test: Pre-emergence test, weed control; conditions: 3 weeks after treatment, rating 0-100 (100=death), Table 3
Experimental: as §1, §2, §3

Poa annua = test: Pre-emergence test, weed control; conditions: 3 weeks after treatment, rating 0-100 (100=death), Table 3
Experimental: as §1, §2, §3

Setaria viridis = test: Pre-emergence test, weed control; conditions: 3 weeks after treatment, rating 0-100 (100=death), Table 3
Experimental: as §1, §2, §3

Stellaria media = test: Pre-emergence test, weed control; conditions: 3 weeks after treatment, rating 0-100 (100=death), Table 3
Experimental: as §1, §2, §3

Veronica persica = test: Pre-emergence test, weed control; conditions: 3 weeks after treatment, rating 0-100 (100=death), Table 3
Experimental: as §1, §2, §3

PAPRH = test: Pre-emergence test, weed control; conditions: 3 weeks after treatment, rating 0-100 (100=death), Table 3
Experimental: as §1, §2
as §3, with “These acetone solutions are diluted with water and the resulting formulations applied at dosage levels corresponding to 15 g, 30 g, 60 g, 120 g or 240 g of active material per hectare in a volume equivalent to 900 liters per hectare. In” for “In”

VIOAR = test: Pre-emergence test, weed control; conditions: 3 weeks after treatment, rating 0-100 (100=death), Table 3
Experimental: as §1, §2
as §3, with “These acetone solutions are diluted with water and the resulting formulations applied at dosage levels corresponding to 15 g, 30 g, 60 g, 120 g or 240 g of active material per hectare in a volume equivalent to 900 liters per hectare. In” for “In”

[1] = test system: Triticum aestivum variety “Kanzler”; test: Pre-emergence test, selectivity; conditions: 3 weeks after treatment, rating 0-100 (100=death), Table 4
Experimental: as §1, §2
as §3, with “These acetone solutions are diluted with water and the resulting formulations applied at dosage levels corresponding to 15 g, 30 g, 60 g, 120 g or 240 g of active material per hectare in a volume equivalent to 900 liters per hectare. In” for “In”

[2] = test system: Triticum aestivum variety “Monopol”; test: Pre-emergence test, selectivity; conditions: 3 weeks after treatment, rating 0-100 (100=death), Table 4
Experimental: as §1, §2
as §3, with “These acetone solutions are diluted with water and the resulting formulations applied at dosage levels corresponding to 15 g, 30 g, 60 g, 120 g or 240 g of active material per hectare in a volume equivalent to 900 liters per hectare. In” for “In”

wheat = test: Pre-emergence test, tolerance in wheat; conditions: in vivo
Experimental: as §1, §2
as §3, with “These acetone solutions are diluted with water and the resulting formulations applied at dosage levels corresponding to 15 g, 30 g, 60 g, 120 g or 240 g of active material per hectare in a volume equivalent to 900 liters per hectare. In” for “In”

Cc1cnc(-c2ccc(C(F)(F)F)cc2)nc1Oc1ccnc(Cl)c1 [REF-4]
ALOMY weed control rating (Alopecurus myosuroides; 0.030 kg/ha): 20 | ALOMY weed control rating (Alopecurus myosuroides; 0.060 kg/ha): 92 | ALOMY weed control rating (Alopecurus myosuroides; 0.120 kg/ha): 93 | ALOMY weed control rating (Alopecurus myosuroides; 0.240 kg/ha): 98 | APESV weed control rating (Apera spica-venti; 0.030 kg/ha): 100 | APESV weed control rating (Apera spica-venti; 0.060 kg/ha): 100 | APESV weed control rating (Apera spica-venti; 0.120 kg/ha): 100 | APESV weed control rating (Apera spica-venti; 0.240 kg/ha): 100 | GALAP weed control rating (Galium aparine; 0.240 kg/ha): 90 | LAMPU weed control rating (Lamium purpureum; 0.030 kg/ha): 97 | LAMPU weed control rating (Lamium purpureum; 0.060 kg/ha): 100 | LAMPU weed control rating (Lamium purpureum; 0.120 kg/ha): 100 | LAMPU weed control rating (Lamium purpureum; 0.240 kg/ha): 100 | LOLPE weed control rating (Lolium perenne; 0.030 kg/ha): 98 | LOLPE weed control rating (Lolium perenne; 0.060 kg/ha): 98 | LOLPE weed control rating (Lolium perenne; 0.120 kg/ha): 100 | LOLPE weed control rating (Lolium perenne; 0.240 kg/ha): 100 | MATIN weed control rating (Matricaria inodora; 0.030 kg/ha): 100 | MATIN weed control rating (Matricaria inodora; 0.060 kg/ha): 100 | MATIN weed control rating (Matricaria inodora; 0.120 kg/ha): 100 | MATIN weed control rating (Matricaria inodora; 0.240 kg/ha): 100 | POAAN weed control rating (Poa annua; 0.030 kg/ha): 100 | POAAN weed control rating (Poa annua; 0.060 kg/ha): 100 | POAAN weed control rating (Poa annua; 0.120 kg/ha): 100 | POAAN weed control rating (Poa annua; 0.240 kg/ha): 100 | SETVI weed control rating (Setaria viridis; 0.030 kg/ha): 65 | SETVI weed control rating (Setaria viridis; 0.060 kg/ha): 80 | SETVI weed control rating (Setaria viridis; 0.120 kg/ha): 100 | SETVI weed control rating (Setaria viridis; 0.240 kg/ha): 100 | STEME weed control rating (Stellaria media; 0.030 kg/ha): 92 | STEME weed control rating (Stellaria media; 0.060 kg/ha): 100 | STEME weed control rating (Stellaria media; 0.120 kg/ha): 100 | STEME weed control rating (Stellaria media; 0.240 kg/ha): 100 | VERPE weed control rating (Veronica persica; 0.030 kg/ha): 98 | VERPE weed control rating (Veronica persica; 0.060 kg/ha): 100 | VERPE weed control rating (Veronica persica; 0.120 kg/ha): 100 | VERPE weed control rating (Veronica persica; 0.240 kg/ha): 100 | PAPRH weed control rating (PAPRH; 0.030 kg/ha): 100 | PAPRH weed control rating (PAPRH; 0.060 kg/ha): 100 | PAPRH weed control rating (PAPRH; 0.120 kg/ha): 100 | PAPRH weed control rating (PAPRH; 0.240 kg/ha): 100 | VIOAR weed control rating (VIOAR; 0.030 kg/ha): 99 | VIOAR weed control rating (VIOAR; 0.060 kg/ha): 100 | VIOAR weed control rating (VIOAR; 0.120 kg/ha): 100 | VIOAR weed control rating (VIOAR; 0.240 kg/ha): 100 | TRZAWK rating (Selectivity) ([1]; 0.030 kg/ha): 10 | TRZAWK rating (Selectivity) ([1]; 0.060 kg/ha): 15 | TRZAWK rating (Selectivity) ([1]; 0.120 kg/ha): 22 | TRZAWK rating (Selectivity) ([1]; 0.240 kg/ha): 22 | TRZAWM rating (Selectivity) ([2]; 0.030 kg/ha): 15 | TRZAWM rating (Selectivity) ([2]; 0.060 kg/ha): 8 | TRZAWM rating (Selectivity) ([2]; 0.120 kg/ha): 22 | TRZAWM rating (Selectivity) ([2]; 0.240 kg/ha): 35 | maximum tolerated dose in wheat / dose at which sufficiently selective in wheat (wheat): 60 g/ha

COc1cnc(-c2ccc(C(F)(F)F)cc2)nc1Oc1ccnc(Cl)c1 [REF-8]
ALOMY weed control rating (Alopecurus myosuroides; 0.030 kg/ha): 15 | ALOMY weed control rating (Alopecurus myosuroides; 0.060 kg/ha): 35 | ALOMY weed control rating (Alopecurus myosuroides; 0.120 kg/ha): 70 | ALOMY weed control rating (Alopecurus myosuroides; 0.240 kg/ha): 90 | APESV weed control rating (Apera spica-venti; 0.030 kg/ha): 100 | APESV weed control rating (Apera spica-venti; 0.060 kg/ha): 100 | APESV weed control rating (Apera spica-venti; 0.120 kg/ha): 100 | APESV weed control rating (Apera spica-venti; 0.240 kg/ha): 100 | GALAP weed control rating (Galium aparine; 0.030 kg/ha): 3 | GALAP weed control rating (Galium aparine; 0.120 kg/ha): 70 | GALAP weed control rating (Galium aparine; 0.240 kg/ha): 70 | LAMPU weed control rating (Lamium purpureum; 0.030 kg/ha): 98 | LAMPU weed control rating (Lamium purpureum; 0.060 kg/ha): 100 | LAMPU weed control rating (Lamium purpureum; 0.120 kg/ha): 100 | LAMPU weed control rating (Lamium purpureum; 0.240 kg/ha): 100 | LOLPE weed control rating (Lolium perenne; 0.030 kg/ha): 60 | LOLPE weed control rating (Lolium perenne; 0.060 kg/ha): 97 | LOLPE weed control rating (Lolium perenne; 0.120 kg/ha): 99 | LOLPE weed control rating (Lolium perenne; 0.240 kg/ha): 99 | MATIN weed control rating (Matricaria inodora; 0.030 kg/ha): 95 | MATIN weed control rating (Matricaria inodora; 0.060 kg/ha): 100 | MATIN weed control rating (Matricaria inodora; 0.120 kg/ha): 100 | MATIN weed control rating (Matricaria inodora; 0.240 kg/ha): 100 | POAAN weed control rating (Poa annua; 0.030 kg/ha): 100 | POAAN weed control rating (Poa annua; 0.060 kg/ha): 100 | POAAN weed control rating (Poa annua; 0.120 kg/ha): 100 | POAAN weed control rating (Poa annua; 0.240 kg/ha): 100 | SETVI weed control rating (Setaria viridis; 0.030 kg/ha): 60 | SETVI weed control rating (Setaria viridis; 0.060 kg/ha): 90 | SETVI weed control rating (Setaria viridis; 0.120 kg/ha): 90 | SETVI weed control rating (Setaria viridis; 0.240 kg/ha): 100 | STEME weed control rating (Stellaria media; 0.030 kg/ha): 35 | STEME weed control rating (Stellaria media; 0.060 kg/ha): 85 | STEME weed control rating (Stellaria media; 0.120 kg/ha): 100 | STEME weed control rating (Stellaria media; 0.240 kg/ha): 100 | VERPE weed control rating (Veronica persica; 0.030 kg/ha): 100 | VERPE weed control rating (Veronica persica; 0.060 kg/ha): 100 | VERPE weed control rating (Veronica persica; 0.120 kg/ha): 100 | VERPE weed control rating (Veronica persica; 0.240 kg/ha): 100 | PAPRH weed control rating (PAPRH; 0.030 kg/ha): 100 | PAPRH weed control rating (PAPRH; 0.060 kg/ha): 100 | PAPRH weed control rating (PAPRH; 0.120 kg/ha): 100 | PAPRH weed control rating (PAPRH; 0.240 kg/ha): 100 | VIOAR weed control rating (VIOAR; 0.030 kg/ha): 99 | VIOAR weed control rating (VIOAR; 0.060 kg/ha): 99 | VIOAR weed control rating (VIOAR; 0.120 kg/ha): 100 | VIOAR weed control rating (VIOAR; 0.240 kg/ha): 100 | TRZAWK rating (Selectivity) ([1]; 0.030 kg/ha): 1 | TRZAWK rating (Selectivity) ([1]; 0.060 kg/ha): 5 | TRZAWK rating (Selectivity) ([1]; 0.120 kg/ha): 12 | TRZAWK rating (Selectivity) ([1]; 0.240 kg/ha): 18 | TRZAWM rating (Selectivity) ([2]; 0.030 kg/ha): 1 | TRZAWM rating (Selectivity) ([2]; 0.060 kg/ha): 3 | TRZAWM rating (Selectivity) ([2]; 0.120 kg/ha): 15 | TRZAWM rating (Selectivity) ([2]; 0.240 kg/ha): 18 | maximum tolerated dose in wheat / dose at which sufficiently selective in wheat (wheat): 120 g/ha
